Publication PMC2733882, “Structure of Hordeum vulgare NADPH-dependent thioredoxin reductase 2. Unwinding the reaction mechanism” (Acta Crystallographica Section D: Biological Crystallography, 2009)

Tests used:
HvNTR2 [1] = biological target: T1, HvNTR2 (Hordeum vulgare, UniProt A9LN30); assay: X-ray crystal structure, […] A; type: binding; settings: crystals pH 3.5, 0.1 M citrate; one FAD per subunit in FAD domain, tightly bound
T1 construct: gene NTR2; recombinant, E. coli Rosetta (DE3); FAD domain 1-126 and 255-331, NADPH domain 127-254; model residues 6-323 (A), 5-323 (B); homodimer

HvNTR2 [2] = biological target: T1, HvNTR2; assay: bleaching of yellow HvNTR2 crystals (FAD reduction); type: biochemical; settings: 10 mM NADPH, 30 min, in crystals; NADPH not seen in the structure

T1 sequence (A9LN30 1-331): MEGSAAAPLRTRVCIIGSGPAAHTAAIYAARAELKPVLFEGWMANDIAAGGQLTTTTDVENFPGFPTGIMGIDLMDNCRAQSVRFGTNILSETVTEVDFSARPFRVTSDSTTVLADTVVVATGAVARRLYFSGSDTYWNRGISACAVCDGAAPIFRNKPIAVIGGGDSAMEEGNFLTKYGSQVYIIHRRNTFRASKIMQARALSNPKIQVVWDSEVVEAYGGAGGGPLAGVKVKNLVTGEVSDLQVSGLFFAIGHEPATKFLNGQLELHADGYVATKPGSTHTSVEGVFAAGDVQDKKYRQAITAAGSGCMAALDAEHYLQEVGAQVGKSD

Row | Structure (SMILES) | X-ray crystal structure, 2.6 A (HvNTR2 [1]) | bleaching of yellow HvNTR2 crystals (FAD reduction) (HvNTR2 [2])
1 | Cc1cc2nc3c(=O)[nH]c(=O)nc-3n(C[C@H](O)[C@H](O)[C@H](O)COP(=O)(O)OP(=O)(O)OC[C@H]3O[C@@H](n4cnc5c(N)ncnc54)[C@H](O)[C@@H]3O)c2cc1C [FAD] | One FAD molecule with well defined electron density | –
2 | NC(=O)C1=CN([C@@H]2O[C@H](COP(=O)(O)OP(=O)(O)OC[C@H]3O[C@@H](n4cnc5c(N)ncnc54)[C@H](OP(=O)(O)O)[C@@H]3O)[C@@H](O)[C@H]2O)C=CC1 [NADPH] | – | FAD can still be reduced by NADPH as judged from the bleaching
